Results: ChEMBL document CHEMBL1201862, “PubChem BioAssay data set” (2004)
“And” between values parts separate entries of the source, which are not always exact repeats. Equal entries are not always repeated.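 Growth conditions: 96-well plates. Treatment: test compound, 48 hours, 5 concentrations. Analysis: linear interpolation between bracketing concentrations; unreached endpoints set to highest concentration. Here, GI50 denotes the concentration required for 50% inhibition of growth.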 The source made the active and inactive calls. Cut-off read from the data, not from the text of the source: active = GI50 up to about 1.1 µM and inactive = higher. Where a SMILES comes first, the peptide text is derived from it. The star is where a group is joined. Cbz = O=C(OCc1ccccc1)*

How the values were obtained:
Assay in all cases: growth of human tumour cells (NCI), 48 h
BT-549 = test system: BT-549
HCT-15 = test system: HCT-15
KM12 = test system: KM12
MOLT-4 = test system: MOLT-4
NCI-H226 = test system: NCI-H226
PC-3 = test system: PC-3
RPMI-8226 = test system: RPMI-8226
RXF 393 = test system: RXF 393
SK-MEL-28 = test system: SK-MEL-28
SK-MEL-2 = test system: SK-MEL-2
SNB-75 = test system: SNB-75
SR = test system: SR
T47D = test system: T47D
UACC-257 = test system: UACC-257
OVCAR-3 = test system: OVCAR-3
SF-295 = test system: SF-295
DU-145 = test system: DU-145
NCI/ADR-RES = test system: NCI/ADR-RES
SF-268 = test system: SF-268

SMILES	GI50 (BT-549)	GI50 (HCT-15)	GI50 (KM12)	GI50 (MOLT-4)	GI50 (NCI-H226)	GI50 (PC-3)	GI50 (RPMI-8226)	GI50 (RXF 393)	GI50 (SK-MEL-28)	GI50 (SK-MEL-2)	GI50 (SNB-75)	GI50 (SR)	GI50 (T47D)	GI50 (UACC-257)	GI50 (OVCAR-3)	GI50 (SF-295)	GI50 (DU-145)	GI50 (NCI/ADR-RES)	GI50 (SF-268)
CCOC(=O)C(CC(=O)OC)NC(=O)C(CC(=O)OC)NC(=O)C(CC(=O)OC)NC(=O)C(CC(=O)OC)NC(=O)OCc1ccccc1 (stereo unspecified) (Cbz-D(OMe)D(OMe)D(OMe)D(OMe)-OEt; configuration not given here)	> 100 µM (inactive)	> 100 µM	> 100 µM (inactive)	> 100 µM (inactive)	> 100 µM (inactive)	> 100 µM (inactive)	> 100 µM (inactive)	> 100 µM (inactive)	> 100 µM (inactive)	> 100 µM (inactive)	> 100 µM (inactive)	> 100 µM (inactive)	> 100 µM (inactive)	> 100 µM (inactive)					
O=C1CCC(=O)C(C(=O)CCC(=O)Nc2cccc(Cl)c2)C1 (stereo unspecified)		> 100 µM	> 100 µM (inactive)	> 100 µM (inactive)	> 100 µM (inactive)		> 100 µM (inactive)	> 100 µM (inactive)			> 100 µM (inactive)	> 100 µM (inactive)		> 100 µM (inactive)	> 100 µM (inactive)	> 100 µM (inactive)			
CN(C)C(c1ccccc1)C1COC2Cc3ccccc3C1O2 (stereo unspecified)		> 100 µM	> 100 µM (inactive)	> 100 µM (inactive) and 54 µM (inactive)	72.9 µM (inactive)	99.3 µM (inactive) and 76.4 µM (inactive)	> 100 µM (inactive) and 91 µM (inactive)	> 100 µM (inactive)	> 100 µM (inactive)	> 100 µM (inactive)	24.9 µM (inactive) and 15.5 µM (inactive)	> 100 µM (inactive)	> 100 µM (inactive)	> 100 µM (inactive)	47.1 µM (inactive) and 64 µM (inactive)	> 100 µM (inactive)	> 100 µM (inactive)	> 100 µM (inactive)	> 100 µM (inactive)
Cc1ccc(S(=O)(=O)N/N=C2\C=C[C@]3(CC2)C(=O)N(C)c2ccccc23)cc1		> 100 µM	> 100 µM (inactive)	> 100 µM (inactive)	69 µM (inactive)	> 100 µM (inactive)	> 100 µM (inactive)	> 100 µM (inactive)	> 100 µM (inactive)	> 100 µM (inactive)	> 100 µM (inactive)	> 100 µM (inactive)	> 100 µM (inactive)	> 100 µM (inactive)	> 100 µM (inactive)	> 100 µM (inactive)	> 100 µM (inactive)	> 100 µM (inactive)	> 100 µM (inactive)
O/N=C1/CCCCCC1NO (stereo unspecified)		> 100 µM	> 100 µM (inactive)	> 100 µM (inactive)	> 100 µM (inactive)	> 100 µM (inactive)	> 100 µM (inactive)	> 100 µM (inactive)	> 100 µM (inactive)	> 100 µM (inactive)		> 10 µM (inactive)	> 100 µM (inactive)	> 100 µM (inactive)	> 100 µM (inactive)	> 100 µM (inactive)	> 100 µM (inactive)	> 100 µM (inactive)	> 100 µM (inactive)
O=C1/C(=C/c2ccc(Oc3ccccc3)cc2)N=C(c2ccccc2)N1c1ccc(S(=O)(=O)Nc2nccs2)cc1		8.07 µM	5.15 µM (inactive)	12.6 µM (inactive)	33.4 µM (inactive)	25.4 µM (inactive)	6.34 µM (inactive)	17 µM (inactive)	22.8 µM (inactive)	2.63 µM (inactive)	7.53 µM (inactive)	2.65 µM (inactive)	12.8 µM (inactive)	21.3 µM (inactive)	17.3 µM (inactive)	22.8 µM (inactive)	47 µM (inactive)	13.1 µM (inactive)	36.8 µM (inactive)
COC(=O)/C(=N/Nc1cccc(Cl)c1)C(C(=O)C(=O)Nc1cccc(Cl)c1C)c1nc2ccccc2nc1C (stereo unspecified)			80.7 µM (inactive)	> 100 µM (inactive)			88.5 µM (inactive)	> 100 µM (inactive)	92.3 µM (inactive)	38.5 µM (inactive)		90.4 µM (inactive)		> 100 µM (inactive)	> 100 µM (inactive)	> 100 µM (inactive)			> 100 µM (inactive)
COc1ccc(C2S/C(=C\c3ccccc3O)C(=O)N2NC(=O)Cc2ccccc2)cc1 (stereo unspecified)		> 100 µM	> 100 µM (inactive)	39.5 µM (inactive)	> 100 µM (inactive)		48.5 µM (inactive)	61.7 µM (inactive)	40.3 µM (inactive)	> 100 µM (inactive)	57.3 µM (inactive)	37.4 µM (inactive)		> 100 µM (inactive)		> 100 µM (inactive)			> 100 µM (inactive)
COc1ccc([C@@]23CCC(=O)C[C@@H]2N(C)CC3)cc1OC		> 100 µM	> 100 µM (inactive)	> 100 µM (inactive)	> 100 µM (inactive)	> 100 µM (inactive)	> 100 µM (inactive)	> 100 µM (inactive)	> 100 µM (inactive)	> 100 µM (inactive)	> 100 µM (inactive)	66.2 µM (inactive)	> 100 µM (inactive)	> 100 µM (inactive)	> 100 µM (inactive)	> 100 µM (inactive)	> 100 µM (inactive)	> 100 µM (inactive)	> 100 µM (inactive)
C[n+]1c(-c2ccc(/C=N/Nc3ccnc(N/N=C/c4ccc(-c5cn6ccccc6[n+]5C)cc4)n3)cc2)cn2ccccc21		98.9 µM	32.6 µM (inactive)	> 100 µM (inactive)		> 100 µM (inactive)	23.5 µM (inactive)		34.7 µM (inactive)		34.7 µM (inactive)	59.4 µM (inactive)	54.8 µM (inactive)	24.2 µM (inactive)		17.9 µM (inactive)		31.9 µM (inactive)	88.9 µM (inactive)
O=CCOCc1cc2c(cc1Br)OCO2		21.9 µM	33 µM (inactive)	30.1 µM (inactive)		21.4 µM (inactive)	40.6 µM (inactive)	37 µM (inactive)	37.9 µM (inactive)		48.9 µM (inactive)	24.7 µM (inactive)	21 µM (inactive)	> 100 µM (inactive)	17.3 µM (inactive)	> 100 µM (inactive)	28.2 µM (inactive)	21 µM (inactive)	18.6 µM (inactive)
N#Cc1nc(C2CCC(=O)O2)oc1N (stereo unspecified)	> 100 µM (inactive)	> 100 µM	> 100 µM (inactive)	> 100 µM (inactive)	> 100 µM (inactive)	> 100 µM (inactive)	> 100 µM (inactive)	> 100 µM (inactive)	> 100 µM (inactive)	> 100 µM (inactive)	29 µM (inactive)	> 100 µM (inactive)		> 100 µM (inactive)	> 100 µM (inactive)	> 100 µM (inactive)	> 100 µM (inactive)	> 100 µM (inactive)	> 100 µM (inactive)
CN(C)c1ccc(C2CC(=O)CC(c3ccc(N(C)C)cc3)C23C(=O)NC(=S)NC3=O)cc1 (stereo unspecified)		> 100 µM	> 100 µM (inactive)	> 100 µM (inactive)	> 100 µM (inactive)	> 100 µM (inactive)	> 100 µM (inactive)	45.7 µM (inactive)	> 100 µM (inactive)	38.8 µM (inactive)	14.6 µM (inactive)	> 100 µM (inactive)	> 100 µM (inactive)	> 100 µM (inactive)	> 100 µM (inactive)	57.9 µM (inactive)	> 100 µM (inactive)	> 100 µM (inactive)	33.2 µM (inactive)
COc1ccc(/C=N/NC(=O)CSc2nc(-c3ccccc3)c(-c3ccccc3)[nH]2)cc1OC		26.9 µM	17.2 µM (inactive)	16 µM (inactive)	30.8 µM (inactive)		20.3 µM (inactive)	20.1 µM (inactive)	41 µM (inactive)	20.7 µM (inactive)	29.9 µM (inactive)			27.1 µM (inactive)	17.1 µM (inactive)	24.2 µM (inactive)			50 µM (inactive)
COc1ccc(C(=O)c2cc(OC)c(OC)c(OC)c2)cc1OC	5.41 µM (inactive)	1.58 µM	0.815 µM (active)	4.17 µM (inactive)		3.86 µM (inactive)	7.53 µM (inactive)	2.36 µM (inactive)	5.94 µM (inactive)	3.08 µM (inactive)	4.04 µM (inactive)	3.28 µM (inactive)		27.2 µM (inactive)	3.71 µM (inactive)	1.82 µM (inactive)	3.92 µM (inactive)	3.84 µM (inactive)	7.8 µM (inactive)
CN1CCN(C2=C(Cl)C3(OCCS3)C(F)(F)C2(F)F)CC1 (stereo unspecified)		79.6 µM		45.4 µM (inactive)	> 100 µM (inactive)		44.5 µM (inactive)	> 100 µM (inactive)		> 100 µM (inactive)	51.3 µM (inactive)	> 100 µM (inactive)	9.35 µM (inactive)	27.2 µM (inactive)	57 µM (inactive)	48.2 µM (inactive)	> 100 µM (inactive)	79.6 µM (inactive)	> 100 µM (inactive)
CC[C@H]1C=CCC[C@@]2(C[C@@H]3CC[C@@H]4[C@H](C(=O)OCCCCCCCCCCCCCCCC(=O)N(CCCN)CCCCN)[C@]5(CCC[C@@H](C)O5)NC(=[N+]34)N2)O1	0.138 µM (active)	0.0479 µM	0.0459 µM (active)	0.0155 µM (active)	0.314 µM (active)	0.0428 µM (active)	0.0344 µM (active)	0.071 µM (active)	0.233 µM (active)	0.0259 µM (active)	0.0533 µM (active)	0.0281 µM (active)		0.0171 µM (active)	0.0738 µM (active)	0.024 µM (active)	0.348 µM (active)	0.0944 µM (active)	0.0214 µM (active)
